The text below walks through data of a melting point compilation (Tetko et al.; mined from patent text by program, amines drawn as free bases though some values may be those of a salt).

SMILES strings stand for the structures.

`COc1cc2c(cc1OC)CN(CCCOc1ccc(NC(=O)c3cccc4c(=O)c5ccccc5[nH]c34)cc1)CC2` displayed a melting point of 220 °C.
For `CCc1cc(-c2cc(-c3ccc(C(=O)O)cc3)ccc2OCCO)ccc1N(CC)CC` the value was 206 °C.
On to `O=c1c(CCl)csc2ccc3ccccc3c12`, for which the melting point was 151 to 153 °C.
As for `CC(C)(C)OC(=O)NCC(=O)NCCCN1CCN(CCCNc2cccc3c2C(=O)c2ccccc2C3=O)CC1`, the melting point was 118 °C.
The same measure for `CCOC(=O)C1=C(N)OC(C)=C(C(=O)OC)C1c1cccc([N+](=O)[O-])c1` (stereo unspecified): 134 °C; for `O=C(O)Cc1cn(S(=O)(=O)c2c(Cl)nc3sccn23)c2ccccc12`: 220 to 222 °C; for `CCC(=O)OCOC(=O)c1cc(S(N)(=O)=O)c(Cl)cc1NCc1ccco1`: 141 to 142 °C.
As to `COc1cc(NC(=O)OCCCN2CCC(c3nn(C)c4cc(F)ccc34)CC2)cc(OC)c1OC`, the melting point fell in the range of 85 to 88 °C.
For `CC(=O)Nc1cnn2c1-c1ccccc1N(NC(C)=O)C2(C)C` the value was 229 to 230 °C; for `COc1ccc2c(c1)c1c3c(c(-c4ccccc4Cl)cc1n2CCCO)C(=O)NC3=O`, 228 to 230 °C.
For `O=C(OCN1C(=O)c2ccccc2C1=O)c1ccccc1[N+](=O)[O-]` the value was 159 to 160 °C; for `CCN(CC)CCC1CCCN(C(=O)N2c3ccccc3NC(=O)c3cccnc32)C1` (stereo unspecified), 110 to 113 °C.
On to `COCOc1c(-c2ccccc2)sc2ncccc12`, for which the melting point is 54 °C.
Take `COc1cccc2sc(C3(O)CCN(C(=O)OC(C)(C)C)C(C)C3)cc12` (stereo unspecified): the melting point lay in the range of 73 to 76 °C.
Compound `CC(C)C[C@@H](CC=O)NC(=O)[C@H](Cc1c[nH]cn1)NC(=O)[C@H](Cc1cccc2ccccc12)NC(=O)OCc1ccccc1` registered a melting point of 153 to 156 °C.
The same measure for `COC(=O)C[C@H]1[C@@H](C(C)=O)C(=O)N1C(c1ccccc1)(c1ccccc1)c1ccccc1`: 52 to 54 °C; for `Fc1ccc(N2CCN(c3cccc(C(F)(F)F)c3)CC2)nn1`: 132 °C.
In the case of `CCOC(=O)C=Cc1ccc(OCc2coc(-c3ccccc3)n2)c(OC)c1`, the melting point lay within 128 to 129 °C.
The same measure for `CCCCCCCN(CCN1CCN(CCCSc2nc3ccccc3o2)CC1)C(=O)Nc1c(C(C)C)cccc1C(C)C`: 93 to 94 °C; for `COC(=O)c1ccc(-n2c(C)nc3ccccc32)cc1`: 153 to 154 °C; for `COC(=O)CNC(=O)C(CS)NC(=O)CNC(=O)CS` (stereo unspecified): 149 to 151 °C.
`C#CCCOc1ccc(/C=C/C(=O)Nc2ccccc2C(=O)O)cc1OC` had a melting point of 178 to 180 °C.
The same measure for `O=[N+]([O-])c1cnn2c(-c3ccc(C(F)(F)F)cc3)ccnc12`: 191 to 193 °C; for `C=CCN1CCC23CCCCC2C1Cc1ccc(O)cc13` (stereo unspecified): 197 to 198 °C.
The same measure for `O=C(O)Cc1[nH]nc2c1CCCC2`: 155 to 156 °C; for `COc1cccc(Oc2c(NS(=O)(=O)c3ccc(C(C)(C)C)cc3)ncnc2OCCOc2ncc(C(C)=O)cn2)c1`: 142 to 144 °C.
For `CCOC(=O)c1ccc(Oc2ccc(F)cc2)nc1` the value was 68 °C; for `CCCOc1ccc(S(=O)(=O)NC[C@@H](C(=O)NO)N2CCCCC2)cc1`, 147 °C; for `O=C(O)CN1C(=O)C(=CC=Cc2ccccc2-c2ccccc2)SC1=S`, 246 to 249 °C.
`CS(=O)(=O)CCCCC(c1c(F)cccc1F)S(=O)(=O)c1ccc(Cl)cc1` (stereo unspecified): the melting point lay within 118 to 119 °C.
In turn, `Cc1cc2c(c(C)c1N)CCO2` showed a melting point of 85 to 86 °C.
The compound `COc1ccc([N+](=O)[O-])c(-c2cc(OC)ccc2[N+](=O)[O-])c1` came in with a melting point of 148 to 149 °C.
The same measure for `CNc1ccc(NC(=O)c2cc3cc(F)ccc3n2Cc2cccc(F)c2)cn1`: 225 to 227 °C; for `CCOC(=O)Cc1c2ccccc2n2c(-c3ccccc3)nccc12`: 59 to 62 °C.
The same measure for `O=C(Nc1cnc2cnc(-c3ccc(O)cc3)nc2c1)c1ccncc1`: 230 to 232 °C.
The same measure for `COc1ccc(S(=O)c2ccccc2)cc1N` (stereo unspecified): 113 to 115 °C.
In the case of `CC(C)S(=O)(=O)NCc1ccc2ccn(C3CCN(CCc4ccc(F)cc4)CC3)c2c1`, the melting point lay within 90 to 92 °C.
For the compound `O=C(c1ccccc1)c1ccc(C(=O)c2ccc(C(=O)c3ccccc3)cc2)cc1`, the melting point is 224 to 228 °C.
In the case of `O=C1CCc2c(F)cc(F)cc2C1`, the melting point came to 46 °C.
The same measure for `CCOC(=O)c1cc2c(C)c([N+](=O)[O-])c(C)c(C)c2o1`: 126 to 128 °C.
The same measure for `CCOC(=O)c1cc(=O)c2c(OCCOc3ccc(NC(C)=O)cc3)cccc2o1`: 220 to 222 °C; for `O=C(CCCCN1CCCCC1)c1ccc2oc3ccc(C(=O)CCCCN4CCCCC4)cc3c(=O)c2c1`: 109 to 110 °C; for `C=CCCOc1ccc(C[C@H](NC(=O)OC(C)(C)C)C(=O)N[C@@H](CC(C)C)C(=O)O)cc1`: 68 to 70 °C.
As to `C[C@H](NC(c1ccccc1)(c1ccccc1)c1ccccc1)C(=O)O`, the melting point fell in the range of 154 to 155 °C.
For `CNc1nc(-c2cccc(NC(=O)c3ccc(O)cc3)c2)c2cc(OC)c(OC)cc2n1` the value was 178 to 180 °C; for `O=C(NCCC1CCCCCCCCCCC1)C1=C(O)COC1=O`, 135 to 137 °C; for `Nc1ccc(Cc2ccc(N)c(C(F)(F)F)c2)cc1C(F)(F)F`, 84 to 88 °C.
The same measure for `COc1ccc(/C=C/C(=O)C2C(=O)CC(c3ccc(OC)cc3)C([N+](=O)[O-])C2c2cccc([N+](=O)[O-])c2)cc1` (stereo unspecified): 204 to 206 °C; for `Cc1c(OCCSCc2ccco2)ccnc1CNc1ncncc1Cl`: 129 to 130 °C; for `O=C(CN1CCC(n2c(=O)[nH]c3ccccc32)CC1)c1ccc(OCc2ccccc2)c(OCc2ccccc2)c1`: 118 to 120 °C.
The same measure for `CN1CCN(C(=O)c2ccc([N+](=O)[O-])cc2)CC1`: 100 to 101 °C; for `C[Si](C)(C)CCCCCCCCCCCNc1ccc(C(=O)O)cc1`: 121 to 122 °C; for `CC(=O)c1cc(-c2ccncc2)sc1-c1ccncc1`: 117 to 119 °C.
In turn, `O=c1c(Nc2cccc(C(F)(F)F)c2)c(Nc2ccc(Br)cc2-c2nnn[nH]2)c1=O` displayed a melting point of 150 to 165 °C.
In turn, `CC(=O)N1CCC(=O)NCc2cc([N+](=O)[O-])ccc21` came in with a melting point of 253 to 256 °C.
The same measure for `CS(=O)(=O)NCC(=O)N[C@@H]1CN2C(=O)N(c3cc(Cl)nc(Cl)c3)C(=O)[C@@]2(Cc2ccc(OC(F)(F)F)cc2)C1`: 105 °C; for `CCCc1nc2c(C)cnc(C(=O)OC)c2n1Cc1ccc(-c2ccccc2-c2nnnn2C(c2ccccc2)(c2ccccc2)c2ccccc2)cc1`: 239 to 242 °C; for `FC(F)(F)C(Cl)=NC(c1ccccc1)(c1ccccc1)c1ccccc1`: 144 to 145 °C.
`COC(=O)CCSc1ncccc1C#N`: the melting point is 101 to 102 °C.
The same measure for `Oc1ccc(C=Cc2cccc(O)c2)cc1`: 213 to 214 °C; for `Cc1cc(-c2cc(C(F)(F)F)nn2-c2ccc(S(C)(=O)=O)c(F)c2)ccc1-c1cocn1`: 141 to 143 °C; for `CCN1C(=O)C(C(=O)Nc2ccccc2S(C)=O)c2cc3c(cc21)CCO3` (stereo unspecified): 137 to 138 °C.
The same measure for `Cc1c(C)c2c(c(C)c1O)SCO2`: 131 to 132 °C; for `Cn1nnnc1-c1cnc2cc(Cl)ccc2c1O`: 350 to 351 °C; for `COc1cc(COc2cccc(S(=O)(=O)c3ccc(C)nc3Nc3c(C)cc(C)cc3C)c2)cc(OC)c1`: 120 to 121 °C.
`COc1ccc(C=C2CS(=O)(=O)CC(=Cc3ccc(OC)cc3)C2(O)NC2=NCCS2)cc1` (stereo unspecified): the melting point is 194 to 196 °C.
For `Cc1c(OCCCCCCC(=O)N(C)c2ccccc2)ccc([N+](=O)[O-])c1C=O` the value was 72 to 73 °C; for `CC(=O)N[C@@H]1CC[C@@H](O)c2ccccc21` (relative stereo), 120 to 127 °C; for `Cc1csc(C(=O)C2C(=O)N(C(N)=O)c3ccc(Cl)nc32)c1` (stereo unspecified), 227 to 228 °C.
For `CCOC(=O)c1ccccc1NCCOc1cccc2ccccc12` the value was 81 to 83 °C.
For `O=C1Nc2ccc(F)cc2C1CCCCN1CCN(c2ccc(F)cc2)CC1` (stereo unspecified) the value was 135 to 137 °C; for `COc1ccnc(CCc2nc3c(C)ccnc3[nH]2)c1`, 143 to 144 °C; for `CC(C)Cn1c(=O)n(C)c(=O)c2c(Sc3nc(Br)n[nH]3)c(Cc3ccccc3C(F)(F)F)sc21`, 174 to 175 °C.
The compound `CCOC(=O)c1cccc(-n2cccc2)c1` gave a melting point of 62 to 64 °C.
The same measure for `C[C@H]1N(S(C)(=O)=O)CO[C@@]1(Cn1cncn1)c1ccc(Cl)cc1Cl` (relative stereo): 167 to 172 °C.
Regarding `CC(=NNCCc1ccccc1)C(=O)O`, the melting point was 74 to 76 °C.
The same measure for `COc1cccc(Nc2cc(-c3nnc(C)o3)ccn2)c1`: 192 to 193 °C.
For `Nc1cnn2cnc3ccccc3c12` the value was 168 to 170 °C; for `O=C(c1nc(-c2ccccc2)nc2ccccc12)N1CCC(O)CC1`, 209 °C.
For `Cc1nc(N)nc(N)c1OCCCc1ccccc1` the value was 160 to 162 °C; for `COc1ccc(-c2noc(C)n2)c(OC)c1C`, 105 to 107 °C; for `C#CCOc1ccc2ccccc2c1COC(=O)C1CC1`, 68 to 73 °C.
As for `COc1ccc(-n2c(=O)[nH]c3c(C(N)=O)nc(-c4cccc(O)c4)nc32)c(C)c1`, the melting point fell in the range of 355 to 357 °C.
The same measure for `O=C(CCCCCOc1ccc(OCc2ccccc2)cc1)C(F)(F)F`: 59 to 60 °C; for `CCCCN(Cc1ccc(-c2ccccc2-c2nnn[nH]2)cc1)c1nc(C)cc(C)n1`: 148 to 150 °C.
The same measure for `CCOC(=O)C(C)Oc1cc(C(=O)O)c(O)c2ccccc12` (stereo unspecified): 75 °C.
